How the values were obtained:
[1] = tested on: Wnt/β-catenin signaling; test: TOPflash reporter assay in transfected HEK293 cells; assay type: cell-based, human
[2] = tested on: HT29; test: Cytotoxicity of EA in tumor cell line HT29; assay type: cell-based; conditions: Homo sapiens, HT-29, mean of at least two experiments
[3] = tested on: HCT116; test: Cytotoxicity of EA in tumor cell line HCT116; assay type: cell-based; conditions: Homo sapiens, HCT-116, mean of at least two experiments
[4] = tested on: FOPflash reporter; test: FOPflash reporter assay in HEK293 cells; assay type: cell-based, human; conditions: 50 μM EA, 24 hours
Experimental: FIG. 1. Inhibition of Wnt/β-catenin signaling by EA. […] Cells were lysed and luciferase activity was quantified. Total protein levels were determined by Bradford Assay and serve as a control for total cell number. (B) HEK293 cells were co-transfected with TOPflash reporter construct, along with expression plasmids for Wnt1, Wnt3, LRP6, Dvl and β-catenin as indicated. […] (C) HEK293 cells were transfected with FOPflash reporter with or without an expression plasmid for β-catenin. […] (D) HEK293 cells were transfected with NFAT reporter and expression plasmid for NFATc. […] The results are expressed as fold induction of luciferase activity compared to the basal level, and are the means of three experiments±SEM. For screening of the drug library, HEK293 cells were grown for at least 24 hours in 10 cm plates prior to transfection. At 50% confluence, cells were transfected with 5 μg of TOPflash reporter, 1 μg expression vector for Dvl, 1 μg of control plasmid pCMXβgal and carrier DNA pcDNA3 plasmid for a total of 10 μg/plate. After transfection for 24 hours, cells were harvested and dispersed in 96-well microtiter plates. […] Then luciferase values were determined. In the Results section, data are expressed as fold stimulation of luciferase activity compared to the basal level. […]

[5] = tested on: Wnt/β-catenin signaling; test: TOPflash reporter assay in SW480 cells; assay type: cell-based, human; conditions: 24 hours
Experimental: FIG. 7. EA destabilizes the LEF-1/β-catenin complex. (A) SW480 cells were treated with increasing amounts of EA for 16 hours. Cells were lysed, and IP was completed with anti-β-catenin monoclonal antibody. The immune complexes were analyzed by immunoblotting with anti-LEF-1, anti-α-catenin and anti-β-catenin antibodies. (B) EA inhibits Wnt/β-catenin signaling in SW480 cells. SW480 cells were transfected with TOPflash reporter and control plasmid pCMXβgal. After transfection for 24 hours, cells were treated with increasing concentrations of EA for another 24 hours as indicated. Cells were then harvested and luciferase values were determined. The results are expressed as relative luciferase activity (%) normalized to a β-galactosidase control. For screening of the drug library, HEK293 cells were grown for at least 24 hours in 10 cm plates prior to transfection. At 50% confluence, cells were transfected with 5 μg of TOPflash reporter, 1 μg expression vector for Dvl, 1 μg of control plasmid pCMXβgal and carrier DNA pcDNA3 plasmid for a total of 10 μg/plate. After transfection for 24 hours, cells were harvested and dispersed in 96-well microtiter plates. […] Then luciferase values were determined. In the Results section, data are expressed as fold stimulation of luciferase activity compared to the basal level. […]

[6] = tested on: Normal PBMC; test: Cell viability assay (MTT) with normal peripheral blood mononuclear cells; assay type: cell-based, human; conditions: Homo sapiens; Normal PBMC from five normal individuals; 48 hours; mean
[7] = tested on: HepG2; test: Cytotoxicity of EA in tumor cell line HepG2; assay type: cell-based; conditions: Homo sapiens, mean of at least two experiments
[8] = tested on: CLL cells; test: Levels of O2− or H2O2 in CLL cells treated with EA; assay type: cell-based, human; conditions: results not shown
[9] = tested on: A549; test: Cytotoxicity of EA in tumor cell line A549; assay type: cell-based; conditions: Homo sapiens, mean of at least two experiments
[10] = tested on: U266; test: Cytotoxicity of EA in tumor cell line U266; assay type: cell-based; conditions: Homo sapiens, U-266, mean of at least two experiments
[11] = tested on: LEF-1, cyclin D1 and fibronectin mRNA; test: Real-time PCR of Wnt target genes in CLL cells; assay type: cell-based, human; conditions: CLL cells from three patients, 16 hours
[12] = tested on: Fzd5 mRNA; test: Real-time PCR of Fzd5 in CLL cells; assay type: cell-based, human; conditions: CLL cells from three patients, 16 hours
[13] = tested on: PC3; test: Cytotoxicity of EA in tumor cell line PC3; assay type: cell-based; conditions: Homo sapiens, PC-3, mean of at least two experiments
[14] = tested on: SW480; test: Cytotoxicity of EA in tumor cell line SW480; assay type: cell-based; conditions: Homo sapiens, mean of at least two experiments

## C=C(CC)C(=O)c1ccc(OCC(=O)O)c(Cl)c1Cl [Compound 1, Ethacrynic acid]
[1]; 50 μM EA, 24 hours
  effect on Wnt1/LRP6 or Wnt3/LRP6, Dvl, and β-catenin-induced transcription: reduced
[1]; Dvl-activated, generally at 10 μM and 50 μM, overnight
  inhibition of TOPflash activity (drug library screen): ≥ 30%
[2]
  IC50: 56 µM
[3]
  IC50: 58 µM
[4]
  effect on the FOPflash reporter: no effect
[5]
  concentrations with dose-dependent inhibition of TOPflash activity: ≥ 60 µM
[6]
  IC50: 34.8 µM
[7]
  IC50: 223 µM
[8]
  levels of O2− or H2O2 in CLL cells: no significant increase
[9]
  IC50: 178 µM
[10]
  IC50: 90 µM
[11]
  LEF-1, cyclin D1 and fibronectin mRNA expression: decreased
[12]
  Fzd5 expression: dose-dependent enhancement
[13]
  IC50: 67 µM
[14]
  IC50: 68 µM

— patent US20110306671A1, “AMIDE DERIVATIVES OF ETHACRYNIC ACID” (The Regents of the The University of California, priority 2008, published 2011)
